Reference: PMC10089316, “Adeno-Associated virus 8 delivers an immunomodulatory peptide to mouse liver more efficiently than to rat liver” (PLOS ONE, 2023)

Tests used:
mKv1.3 channels = target: T1, mKv1.3 channels (Mus musculus, UniProt P16390); test: whole-cell patch-clamp block of mKv1.3 by synthetic ShK-235; assay type: cell-based; settings: Port-a-Patch, L929 fibroblasts stably expressing mKv1.3, 200 ms pulses −80 to 40 mV, 20–25°C, pH 7.4, N = 3 cells per concentration, mean ± SEM, read-out: IC50 for Kv1.3 block
T1 construct: expressed in transfected cells
T1 sequence (P16390 whole entry): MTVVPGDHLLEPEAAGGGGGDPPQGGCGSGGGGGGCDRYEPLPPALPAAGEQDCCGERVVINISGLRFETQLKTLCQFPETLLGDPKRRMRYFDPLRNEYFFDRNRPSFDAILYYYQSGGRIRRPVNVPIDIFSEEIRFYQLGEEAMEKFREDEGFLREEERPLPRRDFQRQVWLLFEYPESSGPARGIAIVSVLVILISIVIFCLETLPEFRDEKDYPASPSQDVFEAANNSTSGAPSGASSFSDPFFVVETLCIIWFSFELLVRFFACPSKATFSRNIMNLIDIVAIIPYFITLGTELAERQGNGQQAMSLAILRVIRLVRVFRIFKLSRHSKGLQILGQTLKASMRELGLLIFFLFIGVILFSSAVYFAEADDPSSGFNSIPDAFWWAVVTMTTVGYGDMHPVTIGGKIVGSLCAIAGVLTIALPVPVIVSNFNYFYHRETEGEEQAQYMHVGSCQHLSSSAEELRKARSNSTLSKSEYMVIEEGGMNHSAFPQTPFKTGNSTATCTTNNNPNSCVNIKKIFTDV
Description: Mouse L929 fibroblasts stably expressing mKv1.3 channels were a kind gift from Dr. Chandy (Nanyang Technological University, Singapore). They were maintained in Dulbecco’s modified Eagle’s medium (DMEM) supplemented with 10% heat-inactivated fetal bovine serum (FBS), 4 mM L-glutamine, 1 mM sodium pyruvate, and 500 μg/mL G418 (Calbiochem/EMD Millipore, Billerica, MA) and cultured to 60~70% confluence.
Patch clamp assays were conducted at room temperature (20–25°C) in the whole-cell configuration using a Port-a-Patch system (Nanion Technologies, Livingston, NJ) connected to a HEKA EPC10-USB amplifier controlled with the PatchMaster software (HEKA, Germany). The external solution contained 1 mM MgCl2, 160 mM NaCl, 4.5 mM KCl, 2 mM CaCl2, and 10 mM Hepes; pH was adjusted to 7.4 with NaOH. […]
The stock of synthetic ShK-235, the supernatants of transfected HEK293T cells, and the rodent serum samples were diluted in the external solution immediately before use and tested in triplicates without any further processing. Peak Kv1.3 currents were recorded before addition of the samples and after reaching steady-state block and results were analyzed using IGOR Pro software (WaveMetrics, Portland, OR) and the IC50 of channel block was calculated by nonlinear regression using Prism software (GraphPad Software, San Diego, CA).

[1] = cited from earlier work
Excerpt: All constructs contain both ShK-235 and EGFP.

Kv1.3 = settings: cited from earlier work
Excerpt: (§1) The voltage-gated Kv1.3 potassium channel has gained interest as a therapeutic target for obesity, as mice lacking Kv1.3 or treated with a Kv1.3 blocker are protected from high-fat diet (HFD)-induced obesity. Kv1.3 is also a target for autoimmune diseases, as […] (CCR7)^- effector memory T (TEM) lymphocytes express high levels of Kv1.3 upon activation and blocking of Kv1.3 inhibits their function. […] However, S ...

[2] = test system: other Kv1.x channels and the KCa3.1 channel; settings: cited from earlier work
Excerpt: as §1

Compound	IC50 (mKv1.3 channels)	immunogenicity [1]	IC50 (Kv1.3)	block of other Kv1.x channels and KCa3.1 [2]
CC[C@H](C)[C@@H]1NC(=O)[C@H](CO)NC(=O)[C@H](Cc2c[nH]cn2)NC(=O)[C@H](CCCCN)NC(=O)[C@@H]2CSSC[C@@H]3NC(=O)[C@H]([C@@H](C)O)NC(=O)[C@H](CCCCN)NC(=O)[C@H](CCCNC(=N)N)NC(=O)[C@H](CSSC[C@H](NC(=O)[C@H](CCCNC(=N)N)NC(=O)[C@H](CO)NC(=O)[C@H](CCCCN)NC(=O)[C@@H]4CCCN4C(=O)[C@H]([C@@H](C)CC)NC(=O)[C@H]([C@@H](C)O)NC(=O)[C@H](CC(=O)O)NC(=O)[C@H]([C@@H](C)CC)NC(=O)[C@@H](NC(=O)[C@H](CO)NC(=O)[C@@H](N)CCCNC(=N)N)CSSC[C@@H](C(=O)N[C@@H](C)C(=O)O)NC(=O)[C@H]([C@@H](C)O)NC(=O)CNC3=O)C(=O)N[C@@H]([C@@H](C)O)C(=O)N[C@@H](C)C(=O)N[C@@H](Cc3ccccc3)C(=O)N[C@@H](CCCCN)C(=O)N2)NC(=O)[C@H](Cc2ccccc2)NC(=O)[C@H](CO)NC(=O)[C@H](CC(C)C)NC(=O)[C@H](CCCNC(=N)N)NC(=O)[C@H](Cc2ccc(O)cc2)NC(=O)[C@H](CCCCN)NC1=O [ShK-235]	0.0709 ± 0.0219 nM	not immunogenic		
ShK: small peptide produced by the sea anemone Stichodactyla helianthus, one of the most potent blockers of Kv1.3 (RSCIDTIPKSRCTAFKCKHSIKYRLSFCRKTCGTCA)			0.01 nM	in the pM to low nM range
